Source: article PMC7731220, “Pharmacophore Modeling and 3D-QSAR Study of Indole and Isatin Derivatives as Antiamyloidogenic Agents Targeting Alzheimer’s Disease” (Molecules, 2020)
Where two headings read alike, the source gives them in different places.

How the values were obtained:
Aβ40 [1] = biological target: T1, Aβ40 (Homo sapiens, UniProt P05067); assay: Inhibition of Aβ40 self-aggregation (thioflavin T fluorescence, 2% HFIP); details: for inhibition at 100 µM: read-out: Aβ40 Aggregation Inhibition % at 100 μM
T1 sequence (P05067 672-711 limits assumed): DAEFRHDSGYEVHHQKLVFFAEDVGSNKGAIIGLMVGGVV
Protocol: All the newly prepared compounds were tested in a routine in vitro assay of inhibition of Aβ40 self-aggregation [25].
(§1) All assays were performed in 96-well plates (Greiner Bio-One, Kremsmünster, Austria) using an Infinite M1000 Pro plate reader (Tecan, Cernusco s.N., Italy). Inhibition data were obtained as mean ± SD (for single concentration points) or mean ± SEM from three independent experiments (for IC50s), using Prism (GraphPad Prism version 5.00 for Windows, GraphPad Software, San Diego, CA, USA).
Assay of aggregation of Aβ40 (EzBiolab, Carmel, IN, USA) was performed as described [25], using 2% of 1,1,1,3,3,3-hexafluoro-2-propanol as aggregation enhancer and spectrofluorimetric detection of thioflavin T fluorescence as the probe of amyloid aggregation.

tau protein = biological target: T2, tau protein (Homo sapiens, UniProt P10636); assay: Tau aggregation inhibition assay in bacterial cells (thioflavin S fluorescence); format: cell-based, Escherichia coli BL21 (DE3); details: for inhibition at 10 µM: cell-based assay
T2 construct: inclusions bodies (IBs) formed by tau full-length protein in bacteria; expressed in transfected cells; host or cells: Escherichia coli BL21 (DE3), plasmids pTARA and pRKT42
T2 sequence (P10636 other isoform, or with tags, fused parts or gaps): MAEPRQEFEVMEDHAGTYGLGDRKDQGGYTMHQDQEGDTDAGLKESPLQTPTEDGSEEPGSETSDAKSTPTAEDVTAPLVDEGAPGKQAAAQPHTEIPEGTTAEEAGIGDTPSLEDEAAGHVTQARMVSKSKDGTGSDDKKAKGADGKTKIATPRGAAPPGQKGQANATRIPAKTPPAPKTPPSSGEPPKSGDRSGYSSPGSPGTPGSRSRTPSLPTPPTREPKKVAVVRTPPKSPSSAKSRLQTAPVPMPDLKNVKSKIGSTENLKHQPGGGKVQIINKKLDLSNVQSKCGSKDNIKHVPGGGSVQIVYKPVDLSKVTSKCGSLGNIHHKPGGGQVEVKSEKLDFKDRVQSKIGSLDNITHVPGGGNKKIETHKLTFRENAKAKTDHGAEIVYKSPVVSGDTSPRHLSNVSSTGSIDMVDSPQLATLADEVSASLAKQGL
Excerpt: The deposition of aggregates of hyperphosphorylated tau protein constitutes the intracellular neurofibrillary tangles, a major histological evidence of AD. The role of tau hyperphosphorylation and aggregation in AD has established both of them as a target for therapeutic intervention, although only N,N,N′,N′-tetramethyl-10H-phenothiazine-3,7-diaminium (TRX0237, leucomethyl-thioninium), the reduced form of methylene blue dye, acting as an inhibitor of tau aggregation, has reached the clinical phase III [26]. In recent years, some of us developed an efficient cell-based assay of tau aggregation, a simple and inexpensive method that provides a straightforward assay to evaluate the putative anti-aggregation capacity of small molecules. This method relies on the use of bacteria overexpressing amyloid-prone proteins to monitor the amyloid aggregation, thus constituting a physiologically relevant model. In particular, it exploits amyloid properties of the inclusions bodies (IBs) formed by tau full-length protein in bacteria stained by thioflavin S (ThS), a specific amyloid dye, to address the bacterial amyloid aggregation and the effect of anti-amyloid compounds in this polymerization process.
Escherichia coli competent cells BL21 (DE3) were transformed with pTARA containing the RNA-polymerase gen of T7 phage (T7RP) under the control of the promoter PBAD and pRKT42 vector encoding four repeats of tau protein in two inserts. Because of the addition of the initiation codon ATG in front of gene, the over-expressed protein contains an additional methionine residue at its N terminus. Tau anti-aggregating activities of the target compounds were assessed in E. coli cells, as previously described. M9 minimal medium (10 mL) containing 0.5% of glucose, 100 μg/mL of ampicillin and 12.5 μg/mL of chloramphenicol was inoculated with a colony of BL21 (DE3) cells bearing the plasmids. To fresh M9 minimal medium containing 0.5% of glucose, 50 μg/mL of ampicillin, 12.5 μg/mL of chloramphenicol, and 250 µM of ThS, the volume of overnight culture necessary to get a 1:500 dilution was added. The cultures were grown at 37 °C and 250 rpm overnight until cell density reached OD600 = 0.6. A volume of 980 μL of the cultures was transferred into 1.5 mL Eppendorf tubes that contained 10 μL of a solution of the target compound in DMSO and 10 μL of arabinose at 25%, leading to a final inhibitor concentration of 10 μM. The resulting cultures were grown at 37 °C and 1400 rpm with a Thermomixer (Eppendorf, Hamburg, Germany) overnight. The same amount of DMSO without the target compound was added to the sample as a negative control (maximal amount of tau), whereas non-induced samples (in the absence of arabinose) were prepared as positive controls (absence of tau), and to assess the potential intrinsic toxicity of the target compounds. In addition, the absorbance at 600 nm of these samples was assessed to confirm the correct bacterial growth, discarding potential intrinsic toxicity of compounds. To determine the IC50 values, the same protocol was followed but only modifying the initial concentration of compounds. In order to use different final concentrations of compound, we performed a dilutions banc from a stock solution of 100 mM in […].
ThS fluorescence and absorbance were tracked using a DTX 800 plate reader Multimode Detector equipped with a Multimode Analysis Software (Beckman-Coulter, Indianapolis, IN, USA). Filters of 430/35 and 485/20 nm were used for the excitation and emission wavelengths, respectively. 535/25 nm filters were also used for the absorbance determination. It should be stressed that ThS fluorescence normalization was carried out considering as 100% the ThS fluorescence of the bacterial cells expressing tau in the absence of compounds and 0% the ThS fluorescence of the bacterial cells non-expressing tau.

human recombinant AChE = biological target: T3, human recombinant AChE (Homo sapiens, UniProt P22303); assay: biochemical; details: for inhibition at 10 µM: read-out: hAChE % Inhib. at 10 μM; for IC50: read-out: hAChE IC50
T3 construct: purchased Sigma Aldrich
T3 sequence (P22303 32-614): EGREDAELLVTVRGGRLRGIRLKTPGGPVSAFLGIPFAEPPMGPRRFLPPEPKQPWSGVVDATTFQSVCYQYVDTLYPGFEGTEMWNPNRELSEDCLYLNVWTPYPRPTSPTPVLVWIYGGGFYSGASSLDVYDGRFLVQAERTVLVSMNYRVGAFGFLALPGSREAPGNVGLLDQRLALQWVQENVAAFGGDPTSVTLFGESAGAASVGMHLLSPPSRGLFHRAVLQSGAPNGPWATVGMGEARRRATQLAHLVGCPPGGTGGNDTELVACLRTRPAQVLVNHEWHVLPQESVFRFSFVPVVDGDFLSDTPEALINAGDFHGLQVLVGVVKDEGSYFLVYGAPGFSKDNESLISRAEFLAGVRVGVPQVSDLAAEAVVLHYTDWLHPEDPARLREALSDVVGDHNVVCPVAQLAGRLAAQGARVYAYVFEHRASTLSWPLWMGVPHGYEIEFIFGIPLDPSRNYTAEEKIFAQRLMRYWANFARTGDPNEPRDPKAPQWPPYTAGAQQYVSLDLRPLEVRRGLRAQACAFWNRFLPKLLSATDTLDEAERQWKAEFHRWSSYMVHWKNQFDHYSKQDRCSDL
Protocol: as §1

[2] = biological target: T4, human recombinant monoamine oxidase A (Homo sapiens, UniProt P21397); assay: Inhibition of monoamine oxidase A (kynuramine); format: biochemical; details: for IC50: read-out: hMAO A IC50; for inhibition at 10 µM: read-out: hMAO A % Inhib. at 10 μM
T4 construct: purchased Sigma Aldrich; host or cells: baculovirus infected insect cells (microsomes)
T4 sequence (P21397 1-527): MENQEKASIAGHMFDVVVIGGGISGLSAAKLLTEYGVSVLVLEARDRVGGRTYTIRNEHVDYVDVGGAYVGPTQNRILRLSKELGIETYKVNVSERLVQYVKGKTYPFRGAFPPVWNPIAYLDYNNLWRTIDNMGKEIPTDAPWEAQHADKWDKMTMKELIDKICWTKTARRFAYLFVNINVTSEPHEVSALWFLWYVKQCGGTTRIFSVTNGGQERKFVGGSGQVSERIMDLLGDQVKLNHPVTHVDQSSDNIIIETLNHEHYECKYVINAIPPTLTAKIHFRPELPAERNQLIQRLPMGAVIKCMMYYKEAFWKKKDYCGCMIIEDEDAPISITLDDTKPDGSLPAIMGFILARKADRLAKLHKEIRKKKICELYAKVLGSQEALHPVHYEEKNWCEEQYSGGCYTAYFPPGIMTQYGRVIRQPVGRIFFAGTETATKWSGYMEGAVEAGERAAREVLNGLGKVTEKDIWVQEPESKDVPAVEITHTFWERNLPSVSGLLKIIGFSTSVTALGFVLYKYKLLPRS
Protocol: as §1
(§2) Inhibition of human recombinant monoamine oxidases A (250 U/mg) and B (59 U/mg; microsomes from baculovirus infected insect cells; Sigma Aldrich) was determined as already described [48], measuring the fluorescence of 4-hydroxyquinoline produced by the oxidative deamination of substrate kynuramine.

[3] = biological target: T5, human recombinant monoamine oxidase B (Homo sapiens, UniProt P27338); assay: Inhibition of monoamine oxidase B (kynuramine); format: biochemical; details: for IC50: read-out: hMAO B IC50; for inhibition at 10 µM: read-out: hMAO B % Inhib. at 10 μM
T5 construct: purchased Sigma Aldrich; host or cells: baculovirus infected insect cells (microsomes)
T5 sequence (P27338 1-520): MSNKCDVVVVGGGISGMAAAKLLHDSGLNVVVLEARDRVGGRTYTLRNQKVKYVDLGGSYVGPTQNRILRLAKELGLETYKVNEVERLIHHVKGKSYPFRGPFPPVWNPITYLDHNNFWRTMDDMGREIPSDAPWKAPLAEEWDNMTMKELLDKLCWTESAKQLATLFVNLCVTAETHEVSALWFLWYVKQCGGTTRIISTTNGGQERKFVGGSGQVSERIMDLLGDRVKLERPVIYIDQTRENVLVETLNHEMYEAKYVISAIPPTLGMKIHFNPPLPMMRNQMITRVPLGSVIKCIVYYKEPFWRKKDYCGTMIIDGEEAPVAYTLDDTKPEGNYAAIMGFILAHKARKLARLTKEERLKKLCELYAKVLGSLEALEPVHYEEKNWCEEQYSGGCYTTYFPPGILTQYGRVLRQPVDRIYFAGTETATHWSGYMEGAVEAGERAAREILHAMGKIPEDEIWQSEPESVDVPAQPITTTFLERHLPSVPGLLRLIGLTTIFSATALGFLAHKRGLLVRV
Protocol: as §1, §2

Aβ40 [4] = biological target: T1, Aβ40; details: cited from earlier work

Row | Structure (SMILES) | inhibition at 100 µM (Aβ40 [1]) | inhibition at 10 µM (tau protein) | IC50 (Aβ40 [1]) | inhibition at 10 µM (human recombinant AChE) | IC50 [3] | inhibition at 10 µM [2] | also measured
1 | N/N=C1\C(=O)Nc2ccc([N+](=O)[O-])cc21 [Compound 3, (Z)-3-Hydrazineylidene-5-nitroindolin-2-one] | 11 ± 3% | – | – | – | – | – | melting point: 217 to 219 °C
2 | O=C1Nc2ccccc2C1=NN=C1C(=O)Nc2ccccc21 [Compound 4] | 31 ± 3% | 17 ± 2% | – | – | – | – | –
3 | O=C1Nc2ccccc2C1=NNc1ccccc1 [Compound 5, isatin 3-phenylhydrazone] | – | – | 22 ± 2 µM | 37 ± 1% | 3.6 ± 0.7 µM | – | IC50 (tau protein): 4.6 ± 0.7 µM; selectivity for MAO A over MAO B ([2]; MAO A over MAO B): 7 fold; IC50 [2]: 0.52 ± 0.04 µM
4 | O=C1Nc2ccccc2C1=NNc1cccc(OCc2ccccc2)c1 [Compound 6, 3-(2-(3-(Benzyloxy)phenyl)hydrazineylidene)indolin-2-one] | 45 ± 6% | 14 ± 2% | – | – | – | 23 ± 5% | IC50 (human recombinant AChE): 4.2 ± 0.8 µM; inhibition at 10 µM [3]: 22 ± 4%
5 | CN1C(=O)C(=NNc2cccc(OCc3ccccc3)c2)c2ccccc21 [Compound 7, 3-(2-(3-(Benzyloxy)phenyl)hydrazineylidene)-1-methylindolin-2-one] | – | 19 ± 2% | 2 ± 0.3 µM | 48 ± 3% | – | 29 ± 3% | inhibition at 10 µM [3]: 41 ± 1%
6 | O=C1Nc2ccccc2C1=NNc1ccc(OCc2ccccc2)cc1 [Compound 8, 3-(2-(4-(Benzyloxy)phenyl)hydrazineylidene)indolin-2-one] | 69 ± 3% | 35 ± 2% | – | – | – | 8 ± 3% | IC50 (human recombinant AChE): 3.9 ± 0.5 µM; inhibition at 10 µM [3]: 36 ± 4%
7 | CN1C(=O)C(=NNc2ccc(OCc3ccccc3)cc2)c2ccccc21 [Compound 9, 3-(2-(4-(Benzyloxy)phenyl)hydrazineylidene)-1-methylindolin-2-one] | – | 20 ± 2% | 0.95 ± 0.04 µM | 48 ± 2% | 4 ± 0.4 µM | 15 ± 3% | –
8 | COc1ccc2c(c1)C(=O)C(=O)N2CCc1ccccc1 [Compound 11] | – | – | 15 ± 1 µM | 47 ± 5% | 2.7 ± 0.3 µM | 20 ± 4% | –
9 | COc1ccc2c(c1)C(=O)C(=O)N2CN1CCOCC1 [Compound 13, 5-Methoxy-1-(morpholinomethyl)indoline-2,3-dione] | 23 ± 5% | – | – | 26 ± 1% | 4.4 ± 0.1 µM | 7 ± 2% | –
10 | COc1ccc2c(c1)C(=NNc1ccc(C(C)C)cc1)C(=O)N2CCN(C)C [Compound 18, 1-(2-(Dimethylamino)ethyl)-3-(2-(4-isopropylphenyl)hydrazineylidene)-5-methoxyindolin-2-one] | – | – | 1.3 ± 0.1 µM | 23 ± 1% | – | 31 ± 4% | inhibition at 10 µM [3]: 47 ± 2%
11 | CC(C)c1ccc(NN=C2C(=O)N(Cc3ccccc3)c3ccc(O)cc32)cc1 [Compound 19, 1-Benzyl-5-hydroxy-3-(2-(4-isopropylphenyl)hydrazineylidene)indolin-2-one] | – | – | 1.6 ± 0.3 µM | 31 ± 1% | – | 18 ± 4% | inhibition at 10 µM [3]: 46 ± 5%
12 | O=C1Nc2ccccc2C1=NNc1cccc2ccccc12 [Compound 23, 3-(2-(Naphthalen-1-yl)hydrazono)indolin-2-one] | – | – | 4.8 ± 0.5 µM | 40 ± 3% | 5.3 ± 0.3 µM | – | IC50 [2]: 7.1 ± 0.3 µM
13 | COc1ccc2c(c1)C(=NNC(=O)c1ccccc1)C(=O)N2 [Compound 26, N′-(5-Methoxy-2-oxoindolin-3-ylidene)benzhydrazide] | 12 ± 5% | – | – | – | – | – | melting point: > 250 °C
14 | O=C1C(=Cc2ccc(O)cc2)Nc2ccccc21 [Compound 27, 2-(4-Hydroxybenzylidene)indolin-3-one] | 69 ± 1% | – | – | – | – | – | melting point: > 250 °C
15 | Clc1ccc(NN=Cc2c[nH]c3ccccc23)cc1 [Compound 32, 3-((2-(4-Chlorophenyl)hydrazono)methyl)-1H-indole] | – | – | 8.4 ± 0.6 µM | 41 ± 5% | 0.23 ± 0.03 µM | – | IC50 [2]: 0.34 ± 0.01 µM
16 | COc1ccc2[nH]cc(C=NNc3ccc4ccccc4n3)c2c1 [Compound 35, 2-(2-((5-Methoxy-1H-indol-3-yl)methylene)hydrazineyl)quinoline] | – | – | 12 ± 2 µM | 38 ± 2% | 6.5 ± 0.6 µM | – | IC50 [2]: 3.8 ± 0.3 µM
17 | CC(C)c1ccc(NN=C2NC(=O)c3ccccc32)cc1 [Compound 38, 3-(2-(4-Isopropylphenyl)hydrazineylidene)isoindolin-1-one] | 49 ± 5% | – | – | – | – | – | melting point: 186 to 187 °C
18 | O=C1Nc2ccc([N+](=O)[O-])cc2/C1=N/Nc1ccccc1 [Compound S22] | – | 15 ± 3% | – | – | – | – | Aβ40 Inhibition % at 100 μM (Aβ40 [4]; Table 5, symbol): -^c (No inhibition at 100 μM concentration); % inhib. @ 100 µM (Aβ40 [4]; supplement, training set, 100 µM): -2±7%
19 | COc1ccc2c(c1)/C(=N/Nc1ccccc1)C(=O)N2 [Compound S23] | – | – | – | – | – | – | Aβ40 Inhibition % at 100 μM (Aβ40 [4]; Table 5): 52%; IC50 (tau protein): 7.7 ± 1 µM
20 | COc1ccc2c(c1)/C(=N/Nc1ccc(OCc3ccccc3)cc1)C(=O)N2 [Compound S34] | – | 16 ± 2% | – | – | – | – | Aβ40 Inhibition % at 100 μM (Aβ40 [4]; Table 5): 20%
21 | COc1ccc2c(c1)/C(=N/Nc1cccc(OCc3ccccc3)c1)C(=O)N2 [Compound S35] | – | – | – | – | – | – | Aβ40 Inhibition % at 100 μM (Aβ40 [4]; Table 5): 44%; IC50 (tau protein): 10 ± 2 µM
